Literature values in PMC6277198, “Molecular basis for activation of lecithin:cholesterol acyltransferase by a compound that increases HDL cholesterol” (eLife, 2018).

Tests used:
[1] = set-up: method as in Shamburek et al., 2016b; conditions: ref Shamburek et al., 2016b; cited from earlier work
LCAT = test system: LCAT; set-up: method as in Kobayashi et al., 2015a; Kobayashi et al., 2015b; conditions: removal of the C4 hydroxyl group, ref Kobayashi et al., 2015a, 2015b; cited from earlier work
mice and hamsters = test system: mice and hamsters; set-up: method as in Chen et al., 2012; Freeman et al., 2017; Kayser et al., 2013; conditions: ref Chen et al., 2012, Freeman et al., 2017, Kayser et al., 2013; cited from earlier work

rhLCAT: Recombinant human LCAT, tested in phase I and as enzyme replacement therapy
safety in a phase I study [1]: safe

O=C1CC(C(F)(F)F)c2c(C3CCN(c4cnc(C(F)(F)F)cn4)CC3)n[nH]c2N1 (stereo not drawn) [compound 4, 4-(trifluoromethyl)−3-(1-(5-(trifluoromethyl)pyrazin-2-yl)piperidin-4-yl)−1,4,5,7-tetrahydro-6H-pyrazolo[3,4-b]pyridin-6-one]
drop in potency compared with 2 (LCAT): ~ 6 fold

CCSc1nnc(Sc2nccnc2C#N)s1 [Compound A, 3-(5-(ethylthio)−1,3,4-thiadiazol-2-ylthio)pyrazine-2-carbonitrile]
plasma CE and HDL-C levels (mice and hamsters): increases
